The target of the assay is RbAp48 (Homo sapiens, UniProt Q09028). Nature of the assay: Competitive fluorescence polarization (FP) assay using complex of peptide 1 and RbAp48. Type of assay: binding. Also on record: Full length RbAp48 was cloned; His tag followed by 3C cleavage site (N, cleaved yes); made in house; host or cells: Sf9 insect cells. Particulars: for IC50: Supplemental Table 2, competitive FP, tracer 1 nM, RbAp48 15 nM, pH 7.5, 30 min room temperature, read-out: IC50; for FP activity in words: competitive FP assay. The method, then:
The binding affinity of our library of synthetic cyclic peptides was evaluated by a competitive fluorescence polarization (FP) assay using a complex formed by peptide 1 and RbAp48. To reduce the length of the peptide it was truncated to the amino acids which seemed most critical according to the crystal structure (residues 676–689, pdb:4pbz). […] We chose to use a cyclization approach to regain affinity, that is, not to induce more interactions but through minimizing the entropic penalty upon binding by reducing the flexibility of the peptide. To this end two amino acids were chosen which are facing one another in the structure (see Figure 1 B/D/E). Two peptides were designed where glutamic acid was used in position 676 (4) or position 680 (5) and lysine in position 688 for both peptides (see Table 1). The macrocycles were formed by connecting the side chains via an amide bond (see Figure 1 D/E). Peptide synthesis was performed on Rink‐amide resin using the Fmoc‐strategy incorporating Fmoc‐L‐Glu(All)‐OH and Fmoc‐L‐Lys(Alloc)‐OH at the sites for cyclization. After completion of the linear synthesis the allyl protecting groups were removed using Pd^0 catalysis and the amide link was formed by using PyBOP. […] Therefore, a range of peptides was synthesized which were cyclized using the same amino acid positions but via a cysteine alkylation strategy (see Figure 1 D/E and Table 1). In this method the residues used for cyclization are replaced with cysteine and benzylic dibromides act as crosslinkers on the unprotected peptides. ^[11] Previous research has shown that such linkers can effectively stabilize cyclic peptides and yield high affinity ligands for protein–protein interaction inhibition. ^[12] Such a linker introduces a xylene group in close vicinity of the hydrophobic patch potentially reconstituting the lost key hydrophobic interactions. To explore a variety of macrocycle conformations we used either ortho‐, meta‐ or para‐substituted dibromides to exchange the linker in both 4 and 5 (see Figure 1 D/E and Table 1). ^[13]
Protein expression and purification
RbAp48 was expressed and purified by the Dortmund Protein Facility. Full length RbAp48 was cloned into a pOPIN vector ligating it to an N-terminal His tag followed by a 3C cleavage site. The protein was expressed from Sf9 cells for 48 h. Cells were harvested and lysed and the protein was purified by loading onto a HisTrap FF crude 5 ml column followed by on-column cleavage using Precission protease. The cleaved protein was then further purified using a HiLoad 26/60 Superdex 200 column.
Fluorescence polarization assay
Fluorescence polarization assays were performed in 384 wells plates in 80 µl volumes. The assay buffer contains 20 mM Tris-HCl, 150 mM NaCl, 0.01% Tween-20 at pH 7.5. The concentration of the fluorescently labelled peptides was 1 nM plates were incubated at room temperature for 30 min before they were read on a Tecan Spark plate reader (λex = 485 nm, λem = 535 nm).
For competitive assays the same conditions were used with a tracer concentration of 1 nM was used and a protein concentration of 15 nM .
(Fluorescence polarisation rises when a labelled molecule tumbles more slowly, as on binding a larger partner.)

Starred links: 1 amine or outer side, 2 acyl side, 3 side chain; linkers in the order of their positions; H or OH if unused. Positions of bridges follow the written chain, without caps; N, C: chain ends. Residues, ends and D or L forms follow the SMILES beside them. TBMB = c1c(C[*:1])cc(C[*:3])cc1C[*:2]; mXylylene = c1cc(C[*:1])cc(C[*:2])c1; X2 = c1ccc2c(C[*:2])ccc(C[*:1])c2c1; pXylylene = c1cc(C[*:2])ccc1C[*:1]; X4 = N#Cc1cc(C[*:1])cc(C[*:2])c1; X3 = COc1cc(C[*:1])cc(C[*:2])c1; X5 = Brc1cc(C[*:1])cc(C[*:2])c1 Where only a bound is given, the exact number is not on record here.

Sequence of RbAp48 (Q09028 whole entry, the tested form may be a part): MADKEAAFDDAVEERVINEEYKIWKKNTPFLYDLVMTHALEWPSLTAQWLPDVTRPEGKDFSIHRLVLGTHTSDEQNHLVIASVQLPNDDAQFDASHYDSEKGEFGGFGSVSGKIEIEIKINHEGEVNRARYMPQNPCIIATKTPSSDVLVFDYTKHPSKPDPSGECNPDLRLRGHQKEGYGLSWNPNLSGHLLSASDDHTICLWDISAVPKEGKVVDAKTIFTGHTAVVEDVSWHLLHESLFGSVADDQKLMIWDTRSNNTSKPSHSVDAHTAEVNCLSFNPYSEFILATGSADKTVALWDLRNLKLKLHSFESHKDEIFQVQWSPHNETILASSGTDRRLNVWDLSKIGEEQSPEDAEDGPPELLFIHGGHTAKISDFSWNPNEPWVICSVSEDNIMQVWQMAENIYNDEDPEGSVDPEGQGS

Take `CC(=O)N[C@H]1CSCc2ccc(cc2)CSC[C@@H](C(=O)N[C@@H](CC(N)=O)C(N)=O)NC(=O)[C@@H]2CCCN2C(=O)[C@H](CC(C)C)NC(=O)[C@H](Cc2ccc(O)cc2)NC(=O)[C@@H]2CCCN2C(=O)[C@H](Cc2c[nH]cn2)NC(=O)[C@H](CCCNC(=N)N)NC(=O)[C@H](C)NC(=O)[C@H](C)NC(=O)[C@H](Cc2c[nH]cn2)NC(=O)[C@H](Cc2c[nH]c3ccccc23)NC(=O)[C@@H]2CCCN2C1=O` [Peptide 19] (Ac-CPWHAARHPYLPCN-NH2; linker 1-13 via pXylylene): the IC50 (commonly the concentration that inhibits the measured activity by half) is more than 10000 nM. For the compound `CC(=O)N[C@H]1CSCc2cccc(c2)CSC[C@@H](C(=O)N[C@@H](C)C(N)=O)NC(=O)[C@@H]2CCCN2C(=O)[C@H](CCCCN)NC(=O)[C@H](Cc2ccc(O)cc2)NC(=O)[C@@H]2CCCN2C(=O)[C@H](CCCNC(=N)N)NC(=O)[C@H](CCCNC(=N)N)NC(=O)[C@H](C)NC(=O)[C@H](C)NC(=O)[C@H](CCCNC(=N)N)NC(=O)[C@H](CCCCN)NC(=O)[C@@H]2CCCN2C1=O` [Peptide 20] (Ac-CPKRAARRPYKPCA-NH2; linker 1-13 via mXylylene), the IC50 was found to be 22.3 ± 0.03 nM; the “FP activity in words” value is “IC50 values similar to those of 7 and 8”.

In the case of `CC(=O)N[C@H]1CSCc2ccc(cc2)CSC[C@@H](C(=O)N[C@@H](C)C(N)=O)NC(=O)[C@@H]2CCCN2C(=O)[C@H](CCCCN)NC(=O)[C@H](Cc2ccc(O)cc2)NC(=O)[C@@H]2CCCN2C(=O)[C@H](CCCNC(=N)N)NC(=O)[C@H](CCCNC(=N)N)NC(=O)[C@H](C)NC(=O)[C@H](C)NC(=O)[C@H](CCCNC(=N)N)NC(=O)[C@H](CCCCN)NC(=O)[C@@H]2CCCN2C1=O` [Peptide 21] (Ac-CPKRAARRPYKPCA-NH2; linker 1-13 via pXylylene), the IC50 stood at 25 ± 7.3 nM; the “FP activity in words” value is “IC50 values similar to those of 7 and 8”. With `CC(=O)N[C@H]1CSCc2cccc(c2)CSC[C@@H](C(=O)N[C@@H](C)C(N)=O)NC(=O)[C@@H]2CCCN2C(=O)[C@H](CCCCN)NC(=O)[C@H](Cc2ccc(O)cc2)NC(=O)[C@@H]2CCCN2C(=O)[C@H](CCCNC(=N)N)NC(=O)[C@H](CCCNC(=N)N)NC(=O)[C@H](C)NC(=O)[C@H](C)NC(=O)[C@H](CCCNC(=N)N)NC(=O)[C@H](Cc2c[nH]c3ccccc23)NC(=O)[C@H]([C@@H](C)O)NC1=O` [Peptide 22] (Ac-CTWRAARRPYKPCA-NH2; linker 1-13 via mXylylene), the half-inhibitory concentration (IC50) is 315 ± 57.8 nM.

As for `CC(=O)N[C@H]1CSCc2ccc(cc2)CSC[C@@H](C(=O)N[C@@H](C)C(N)=O)NC(=O)[C@@H]2CCCN2C(=O)[C@H](CCCCN)NC(=O)[C@H](Cc2ccc(O)cc2)NC(=O)[C@@H]2CCCN2C(=O)[C@H](CCCNC(=N)N)NC(=O)[C@H](CCCNC(=N)N)NC(=O)[C@H](C)NC(=O)[C@H](C)NC(=O)[C@H](CCCNC(=N)N)NC(=O)[C@H](Cc2c[nH]c3ccccc23)NC(=O)[C@H]([C@@H](C)O)NC1=O` [Peptide 23] (Ac-CTWRAARRPYKPCA-NH2; linker 1-13 via pXylylene), the IC50 was 245 ± 29.3 nM. As to `CC(=O)N[C@H]1CSCc2cccc(c2)CSC[C@@H](C(=O)N[C@@H](C)C(N)=O)NC(=O)[C@@H]2CCCN2C(=O)[C@H](CCCCN)NC(=O)[C@H](Cc2ccc(O)cc2)NC(=O)[C@@H]2CCCN2C(=O)[C@H](CCCNC(=N)N)NC(=O)[C@H](CCCNC(=N)N)NC(=O)[C@H](C)NC(=O)[C@H](C)NC(=O)[C@H](Cc2c[nH]cn2)NC(=O)[C@H](CCCCN)NC(=O)[C@H]([C@@H](C)O)NC1=O` [Peptide 24] (Ac-CTKHAARRPYKPCA-NH2; linker 1-13 via mXylylene), the IC50 was 265 ± 7.4 nM. For `CC(=O)N[C@H]1CSCc2ccc(cc2)CSC[C@@H](C(=O)N[C@@H](C)C(N)=O)NC(=O)[C@@H]2CCCN2C(=O)[C@H](CCCCN)NC(=O)[C@H](Cc2ccc(O)cc2)NC(=O)[C@@H]2CCCN2C(=O)[C@H](CCCNC(=N)N)NC(=O)[C@H](CCCNC(=N)N)NC(=O)[C@H](C)NC(=O)[C@H](C)NC(=O)[C@H](Cc2c[nH]cn2)NC(=O)[C@H](CCCCN)NC(=O)[C@H]([C@@H](C)O)NC1=O` [Peptide 25] (Ac-CTKHAARRPYKPCA-NH2; linker 1-13 via pXylylene), the IC50 is 303 ± 85.9 nM. With `CC(=O)N[C@H]1CSCc2cccc(c2)CSC[C@@H](C(=O)N[C@@H](C)C(N)=O)NC(=O)[C@@H]2CCCN2C(=O)[C@H](CCCCN)NC(=O)[C@H](Cc2ccc(O)cc2)NC(=O)[C@@H]2CCCN2C(=O)[C@H](Cc2c[nH]cn2)NC(=O)[C@H](CCCNC(=N)N)NC(=O)[C@H](C)NC(=O)[C@H](C)NC(=O)[C@H](CCCNC(=N)N)NC(=O)[C@H](CCCCN)NC(=O)[C@H]([C@@H](C)O)NC1=O` [Peptide 26] (Ac-CTKRAARHPYKPCA-NH2; linker 1-13 via mXylylene), the IC50 was 512 ± 48.4 nM. For `CC(=O)N[C@H]1CSCc2ccc(cc2)CSC[C@@H](C(=O)N[C@@H](C)C(N)=O)NC(=O)[C@@H]2CCCN2C(=O)[C@H](CCCCN)NC(=O)[C@H](Cc2ccc(O)cc2)NC(=O)[C@@H]2CCCN2C(=O)[C@H](Cc2c[nH]cn2)NC(=O)[C@H](CCCNC(=N)N)NC(=O)[C@H](C)NC(=O)[C@H](C)NC(=O)[C@H](CCCNC(=N)N)NC(=O)[C@H](CCCCN)NC(=O)[C@H]([C@@H](C)O)NC1=O` [Peptide 27] (Ac-CTKRAARHPYKPCA-NH2; linker 1-13 via pXylylene), the IC50 stood at 335 ± 65 nM. As to `COc1cc2cc(c1)CSC[C@@H](C(=O)N[C@@H](C)C(N)=O)NC(=O)[C@@H]1CCCN1C(=O)[C@H](CCCCN)NC(=O)[C@H](Cc1ccc(O)cc1)NC(=O)[C@@H]1CCCN1C(=O)[C@H](CCCNC(=N)N)NC(=O)[C@H](CCCNC(=N)N)NC(=O)[C@H](C)NC(=O)[C@H](C)NC(=O)[C@H](CCCNC(=N)N)NC(=O)[C@H](CCCCN)NC(=O)[C@H]([C@@H](C)O)NC(=O)[C@@H](NC(C)=O)CSC2` [Peptide 28] (Ac-CTKRAARRPYKPCA-NH2; linker 1-13 via X3 (inferred)), the half-inhibitory concentration (IC50) was determined as 38.4 ± 3.8 nM. Turning to `CC(=O)N[C@H]1CSCc2cc(C#N)cc(c2)CSC[C@@H](C(=O)N[C@@H](C)C(N)=O)NC(=O)[C@@H]2CCCN2C(=O)[C@H](CCCCN)NC(=O)[C@H](Cc2ccc(O)cc2)NC(=O)[C@@H]2CCCN2C(=O)[C@H](CCCNC(=N)N)NC(=O)[C@H](CCCNC(=N)N)NC(=O)[C@H](C)NC(=O)[C@H](C)NC(=O)[C@H](CCCNC(=N)N)NC(=O)[C@H](CCCCN)NC(=O)[C@H]([C@@H](C)O)NC1=O` [Peptide 29] (Ac-CTKRAARRPYKPCA-NH2; linker 1-13 via X4 (inferred)), the IC50 amounted to 43.8 ± 4.7 nM. As to `CC(=O)N[C@H]1CSCc2cc(Br)cc(c2)CSC[C@@H](C(=O)N[C@@H](C)C(N)=O)NC(=O)[C@@H]2CCCN2C(=O)[C@H](CCCCN)NC(=O)[C@H](Cc2ccc(O)cc2)NC(=O)[C@@H]2CCCN2C(=O)[C@H](CCCNC(=N)N)NC(=O)[C@H](CCCNC(=N)N)NC(=O)[C@H](C)NC(=O)[C@H](C)NC(=O)[C@H](CCCNC(=N)N)NC(=O)[C@H](CCCCN)NC(=O)[C@H]([C@@H](C)O)NC1=O` [Peptide 30] (Ac-CTKRAARRPYKPCA-NH2; linker 1-13 via X5 (inferred)), the IC50 turned out to be 31 ± 3.7 nM.

On to `CC(=O)N[C@H]1CSCc2cc(C)cc(c2)CSC[C@@H](C(=O)N[C@@H](C)C(N)=O)NC(=O)[C@@H]2CCCN2C(=O)[C@H](CCCCN)NC(=O)[C@H](Cc2ccc(O)cc2)NC(=O)[C@@H]2CCCN2C(=O)[C@H](CCCNC(=N)N)NC(=O)[C@H](CCCNC(=N)N)NC(=O)[C@H](C)NC(=O)[C@H](C)NC(=O)[C@H](CCCNC(=N)N)NC(=O)[C@H](CCCCN)NC(=O)[C@H]([C@@H](C)O)NC1=O` [Peptide 31] (Ac-CTKRAARRPYKPCA-NH2; linker 1-13 via TBMB (inferred)), for which the IC50 worked out at 40.4 ± 1.5 nM.

Turning to `CC(=O)N[C@H]1CSCc2ccc(c3ccccc23)CSC[C@@H](C(=O)N[C@@H](C)C(N)=O)NC(=O)[C@@H]2CCCN2C(=O)[C@H](CCCCN)NC(=O)[C@H](Cc2ccc(O)cc2)NC(=O)[C@@H]2CCCN2C(=O)[C@H](CCCNC(=N)N)NC(=O)[C@H](CCCNC(=N)N)NC(=O)[C@H](C)NC(=O)[C@H](C)NC(=O)[C@H](CCCNC(=N)N)NC(=O)[C@H](CCCCN)NC(=O)[C@H]([C@@H](C)O)NC1=O` [Peptide 32] (Ac-CTKRAARRPYKPCA-NH2; linker 1-13 via X2 (inferred)), the IC50 was found to be 43.7 ± 6.4 nM.
